{"source": "patent US10933056B2", "about": "“3-(1H-pyrazol-4-yl)pyridine allosteric modulators of the M4 muscarinic acetylcholine receptor” (Merck Sharp & Dohme Corp., priority 2015, dated 2021)", "note": "pEC50: −log10 of the molar value.", "data": [{"target": "T1, human M4 muscarinic acetylcholine receptor (Homo sapiens, UniProt P08173)", "T1 construct": "expressed in transfected cells; host or cells: CHO-K1", "T1 sequence (P08173 1-479)": "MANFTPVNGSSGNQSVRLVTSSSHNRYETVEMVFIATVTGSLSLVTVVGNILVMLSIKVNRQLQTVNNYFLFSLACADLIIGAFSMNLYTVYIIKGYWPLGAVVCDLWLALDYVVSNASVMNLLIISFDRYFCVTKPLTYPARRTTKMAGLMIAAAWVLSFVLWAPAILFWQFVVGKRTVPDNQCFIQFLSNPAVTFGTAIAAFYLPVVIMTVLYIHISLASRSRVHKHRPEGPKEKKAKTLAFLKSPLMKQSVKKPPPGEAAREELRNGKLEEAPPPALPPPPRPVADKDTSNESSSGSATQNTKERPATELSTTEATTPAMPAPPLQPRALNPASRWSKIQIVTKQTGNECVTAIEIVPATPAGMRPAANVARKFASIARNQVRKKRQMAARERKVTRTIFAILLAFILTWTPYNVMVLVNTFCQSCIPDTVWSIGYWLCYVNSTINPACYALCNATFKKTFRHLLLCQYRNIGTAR", "assay": "human FLIPR-based M4 PAM assay (calcium mobilization in CHO-K1 cells with human M4 receptor and Gαqi5)", "format": "cell-based", "conditions": "inflection point of dose response curve, acetylcholine at 20% of maximum response, FLIPR Tetra, read-out: M4 PAM IP", "protocol": "(§1) In a typical experiment the M4 muscarinic acetylcholine receptor modulating activity of the compounds of the present invention was determined in accordance with the following experimental method. CHO-K1 cells stably transfected with human M4 receptor and chimeric G-protein Gαqi5 (Coward P, et al., Analytical Biochemistry, 270:242-248 (1999)) are thawed from liquid N2 storage, resuspended in growth medium, plated in black, clear bottom 384 well plates, and incubated 16-20 hours at 37° C., 5% CO2. On the day of assay, growth medium is removed, the cells are washed 2 times with wash buffer, and cells are incubated in dye loading buffer at 37° C., 5% CO2 for ˜1 hour. Following dye loading the cell plates are placed in a FLIPR Tetra instrument and while monitoring dye fluorescence (excitation […]), 10 uL of test substance at increasing concentrations is added, and fluorescence values are recorded for 4 min. Next, 10 uL of acetylcholine is added (final concentration calculated so as to achieve 20% of the maximum acetycholine response), and the fluorescence reading is continued for 3.5 min. In some cases, a third addition of acetylcholine (final concentration calculated to achieve 70% of the maximal acetylcholine response) is performed. The resulting dose response curves are fit to a 4 parameter logistic equation and the final result is determined as the inflection point (IP) of the curve\nas §1, with “CHO-K1” for “In a typical experiment the M4 muscarinic acetylcholine receptor modulating activity of the compounds of the present invention was determined in accordance with the following experimental method. CHO-K1”, “Gαqi5” for “Gαqi5 (Coward P, et al., Analytical Biochemistry, 270:242-248 (1999))”, “performed.” for “performed. The resulting dose response curves are fit to a 4 parameter logistic equation and the final result is determined as the inflection point (IP) of the curve”", "values": [{"smiles": "Cc1ccc(-c2cnn(CC3(C)CCCC3)c2)c(-c2ccc3c(c2)C(=O)N(C)C3)n1", "note": "[Example 27, 2-methyl-6-(6-methyl-3-(1-((1-methylcyclopentyl)methyl)-1H-pyrazol-4-yl)pyridin-2-yl)isoindolin-1-one]", "pEC50": 7.96}, {"smiles": "Cc1ccc(-c2cnn(CC3(C)CCCC3)c2)c(-c2ccc3c(c2)C(=O)N(C2CC2)C3)n1", "note": "[Example 28, 2-cyclopropyl-6-(6-methyl-3-(1-((1-methylcyclopentyl)methyl)-1H-pyrazol-4-yl)pyridin-2-yl)isoindolin-1-one]", "pEC50": 8.00}, {"smiles": "CC1(Cn2cc(-c3c(F)ccnc3-c3ccc4c(c3)C(=O)N(CC3CC3)C4)cn2)CCCC1", "note": "[Example 29, 2-(cyclopropylmethyl)-6-(4-fluoro-3-(1-((1-methylcyclopentyl)methyl)-1H-pyrazol-4-yl)pyridin-2-yl)isoindolin-1-one]", "pEC50": 7.89}, {"smiles": "Cc1ccc(-c2cnn(CC3(C)CCCC3)c2F)c(-c2ccc3c(c2)C(=O)N(CC2CC2)C3)n1", "note": "[Example 30, 2-(cyclopropylmethyl)-6-(3-(5-fluoro-1-((1-methylcyclopentyl)methyl)-1H-pyrazol-4-yl)-6-methylpyridin-2-yl)isoindolin-1-one]", "pEC50": 7.74}, {"smiles": "CN1Cc2ccc(-c3nccc(C#N)c3-c3cnn(CC4(C)CCCC4)c3)cc2C1=O", "note": "[Example 31, 2-(2-methyl-3-oxoisoindolin-5-yl)-3-(1-((1-methylcyclopentyl)methyl)-1H-pyrazol-4-yl)isonicotinonitrile]", "pEC50": 7.13}, {"smiles": "CC1(Cn2cc(-c3ccc(C#N)nc3-c3ccc4c(c3)C(=O)N(CC3CC3)C4)cn2)CCCC1", "note": "[Example 32, 6-(2-(cyclopropylmethyl)-3-oxoisoindolin-5-yl)-5-(1-((1-methylcyclopentyl)methyl)-1H-pyrazol-4-yl)picolinonitrile]", "pEC50": 8.15}, {"smiles": "CC1(Cn2cc(-c3ccc(C#N)nc3-c3ccc4c(c3)C(=O)N(C3CC3)C4)cn2)CCCC1", "note": "[Example 33, 6-(2-cyclopropyl-3-oxoisoindolin-5-yl)-5-(1-((1-methylcyclopentyl)methyl)-1H-pyrazol-4-yl)picolinonitrile]", "pEC50": 8.15}, {"smiles": "CC1(Cn2cc(-c3ccc(C#N)nc3-c3ccc4c(c3)C(=O)NC4)cn2)CCCC1", "note": "[Example 34, 5-(1-((1-methylcyclopentyl)methyl)-1H-pyrazol-4-yl)-6-(3-oxoisoindolin-5-yl)picolinonitrile]", "pEC50": 7.82}, {"smiles": "COC(=O)CN1Cc2ccc(-c3nc(C#N)ccc3-c3cnn(CC4(C)CCCC4)c3)cc2C1=O", "note": "[Example 34A, methyl 2-(6-(6-cyano-3-(1-((1-methylcyclopentyl)-methyl)-1H-pyrazol-4-yl)pyridin-2-yl)-1-oxoisoindolin-2-yl)acetate]", "pEC50": 7.36}, {"smiles": "CC1(Cn2cc(-c3ccc(F)nc3-c3ccc4c(c3)C(=O)N(C3CC3)C4)cn2)CCCC1", "note": "[Example 35, 2-cyclopropyl-6-(6-fluoro-3-(1-((1-methylcyclopentyl)methyl)-1H-pyrazol-4-yl)pyridin-2-yl)isoindolin-1-one]", "pEC50": 8.05}, {"smiles": "CN1Cc2ccc(-c3nc(F)ccc3-c3cnn(CC4(C)CCCC4)c3)cc2C1=O", "note": "[Example 36, 6-(6-fluoro-3-(1-((1-methylcyclopentyl)methyl)-1H-pyrazol-4-yl)pyridin-2-yl)-2-methylisoindolin-1-one]", "pEC50": 8.22}, {"smiles": "CC1(Cn2cc(-c3ccc(F)nc3-c3ccc4c(c3)C(=O)NC4)cn2)CCCC1", "note": "[Example 37, 6-(6-fluoro-3-(1-((1-methylcyclopentyl)methyl)-1H-pyrazol-4-yl)pyridin-2-yl)isoindolin-1-one]", "pEC50": 8.15}, {"smiles": "Cc1cc(-c2cnn(CC3(C)CCCC3)c2)c(-c2ccc3c(c2)C(=O)N(C)C3)nc1Cl", "note": "[Example 38, 6-(6-chloro-5-methyl-3-(1-((1-methylcyclopentyl)methyl)-1H-pyrazol-4-yl)pyridin-2-yl)-2-methylisoindolin-1-one]", "pEC50": 7.48}, {"smiles": "CN1Cc2ccc(-c3nc4c(cc3-c3cnn(CC5(C)CCCC5)c3)CCC4)cc2C1=O", "note": "[Example 39, 2-methyl-6-(3-(1-((1-methylcyclopentyl)methyl)-1H-pyrazol-4-yl)-6,7-dihydro-5H-cyclopenta[b]pyridin-2-yl)isoindolin-1-one]", "pEC50": 7.43}, {"smiles": "CC1(Cn2cc(-c3cc4c(nc3-c3cnc5c(c3)C(=O)NC5)[C@H](F)CC4)cn2)CCCC1", "note": "[Example 39A, (R)-3-(7-fluoro-3-(1-((1-methylcyclopentyl)methyl)-1H-pyrazol-4-yl)-6,7-dihydro-5H-cyclopenta[b]pyridin-2-yl)-6,7-dihydro-5H-pyrrolo[3,4-b]pyridin-5-one]", "pEC50": 7.24}, {"smiles": "CC1(Cn2cc(-c3cc4c(nc3-c3cnc5c(c3)C(=O)NC5)[C@@H](F)CC4)cn2)CCCC1", "note": "[Example 39B, (S)-3-(7-fluoro-3-(1-((1-methylcyclopentyl)methyl)-1H-pyrazol-4-yl)-6,7-dihydro-5H-cyclopenta[b]pyridin-2-yl)-6,7-dihydro-5H-pyrrolo[3,4-b]pyridin-5-one]", "pEC50": 7.60}, {"smiles": "Cc1cc(-c2cnn(CC3(C)CCCC3)c2)c(-c2ccc3c(c2)C(=O)NC3)nc1Cl", "note": "[Example 40, 6-(6-chloro-5-methyl-3-(1-((1-methylcyclopentyl)methyl)-1H-pyrazol-4-yl)pyridin-2-yl)isoindolin-1-one]", "pEC50": 7.31}, {"smiles": "CN1Cc2ccc(-c3nc(CO)c(F)cc3-c3cnn(CC4(C)CCCC4)c3)cc2C1=O", "note": "[Example 41, 6-(5-fluoro-6-(hydroxymethyl)-3-(1-((1-methylcyclopentyl)methyl)-1H-pyrazol-4-yl)pyridin-2-yl)-2-methylisoindolin-1-one]", "pEC50": 7.19}, {"smiles": "CC1(Cn2cc(-c3ccc(C#N)nc3-c3ccc4c(c3)C(=O)N(CCF)C4)cn2)CCCC1", "note": "[Example 42, 6-(2-(2-fluoroethyl)-3-oxoisoindolin-5-yl)-5-(1-((1-methylcyclopentyl)methyl)-1H-pyrazol-4-yl)picolinonitrile]", "pEC50": 7.43}, {"smiles": "CN1Cc2ccc(-c3nc(C#N)ccc3-c3cnn(CC4(C)CCCC4)c3F)cc2C1=O", "note": "[Example 43, 5-(5-fluoro-1-((1-methylcyclopentyl)methyl)-1H-pyrazol-4-yl)-6-(2-methyl-3-oxoisoindolin-5-yl)picolinonitrile]", "pEC50": 7.70}, {"smiles": "CC1(Cn2ncc(-c3ccc(C#N)nc3-c3ccc4c(c3)C(=O)NC4)c2F)CCCC1", "note": "[Example 43A, 5-(5-fluoro-1-((1-methylcyclopentyl)methyl)-1H-pyrazol-4-yl)-6-(3-oxoisoindolin-5-yl)picolinonitrile]", "pEC50": 7.59}, {"smiles": "CC1(Cn2ncc(-c3ccc(C#N)nc3-c3ccc4c(c3)C(=O)N(C3CC3)C4)c2F)CCCC1", "note": "[Example 44, 6-(2-cyclopropyl-3-oxoisoindolin-5-yl)-5-(5-fluoro-1-((1-methylcyclopentyl)methyl)-1H-pyrazol-4-yl)picolinonitrile]", "pEC50": 7.27}, {"smiles": "CC1(Cn2ncc(-c3ccc(C#N)nc3-c3ccc4c(c3)C(=O)N(CC3CC3)C4)c2F)CCCC1", "note": "[Example 45, 6-(2-(cyclopropylmethyl)-3-oxoisoindolin-5-yl)-5-(5-fluoro-1-((1-methylcyclopentyl)methyl)-1H-pyrazol-4-yl)picolinonitri1e]", "pEC50": 7.39}, {"smiles": "CN1Cc2ccc(-c3nc(C#N)c(F)cc3-c3cnn(CC4(C)CCCC4)c3)cc2C1=O", "note": "[Example 47, 3-fluoro-6-(2-methyl-3-oxoisoindolin-5-yl)-5-(1-((1-methylcyclopentyl)methyl)-1H-pyrazol-4-yl)picolinonitrile]", "pEC50": 7.70}, {"smiles": "CC1(Cn2cc(-c3cc(F)c(C#N)nc3-c3ccc4c(c3)C(=O)N(CC3CC3)C4)cn2)CCCC1", "note": "[Example 48, 6-(2-(cyclopropylmethyl)-3-oxoisoindolin-5-yl)-3-fluoro-5-(1-((1-methylcyclopentyl)methyl)-1H-pyrazol-4-yl)picolinonitrile]", "pEC50": 7.12}, {"smiles": "CC1(Cn2cc(-c3cc4c(nc3-c3ccc5c(c3)C(=O)N(CCF)C5)CCC4)cn2)CCCC1", "note": "[Example 49, 2-(2-fluoroethyl)-6-(3-(1-((1-methylcyclopentyl)methyl)-1H-pyrazol-4-yl)-6,7-dihydro-5H-cyclopenta[b]pyridin-2-yl)isoindolin-1-one]", "pEC50": 7.49}]}]}
